The structures appear in SMILES notation.

This assay concerns the target T1, human recombinant his-tagged HSP90α (Homo sapiens, UniProt P07900).
T1 construct: purchased Prospec Technogene #HSP90
In words: HSP90 enzyme assay (HTRF, competition with biotinylated Geldanamycin). In kind it is binding. Particulars: IC50 range; read-out: Enzyme Assay. An excerpt:
An HTRF (homogeneous time resolved fluorescence) assay is used to measure the interaction of the compounds with HSP90. The assay measures binding of biotinylated Geldanamycin (bio-GM; Biomol, #EI-341, lot: A9199a) to human recombinant his-tagged HSP90α (HSP90; Prospec Technogene, #HSP90, lot: 260HSP9001). A signal is generated by fluorescence resonance energy transfer from an Europium-cryptate labeled anti-his antibody (anti-his-K; Cisbio International, #61HISKLA, lot: 33V) via the HSP90-GM-biotin complex to a fluorescence acceptor (allophycocyanin) linked to streptavidin (SA-XL; Cisbio International, #610SAXLB, lot: 089).
Unlabeled GM or compounds compete with the bio-GM for binding to HSP90 resulting in reduced fluorescence energy transfer/assay signal.
A preformed (1 hour incubation) complex of HSP90 with the anti-his-K is added to the compound solution in a 384 well microplate (Corning, #3710) and incubated for 15 minutes. A preformed (1 hour incubation) complex of bio-GM with the SA-XL is added to the wells and incubated for 20 hours. All incubations are performed at room temperature. The final assay volume is 50 μl/well. The final concentrations in the assay are: 50 mM Hepes pH 7.3, 50 mM NaCl, 100 mM KF, 1 mM EDTA, 1 mM DTT, 0.1% Triton-X-100, […] HSP90, 40 nM SA-XL, 40 nM bio-GM. Test compounds are dissolved in DMSO, prediluted in assay buffer and tested at a final concentration between 5000 nM and 0.3 nM. The resulting DMSO concentration is 0.5% and included in all controls. High controls are without test compounds, low controls without test compounds, without HSP90 and without bio-GM. As a reference inhibitor unlabeled GM is used in the same concentrations as the test compounds.
Inhibition is calculated compared to the assay controls using an Excel spreadsheet (Microsoft). IC50 values are calculated by non-linear least squares fitting to the standard dose-response model using GraphPad Prism (GraphPad Software Inc).
On to `CC(C)C[C@H](NCCc1ccc2c(c1)CN(C(=O)c1cc(C(C)C)c(O)cc1O)C2)C(=O)O` [Example 81, N-[2-(2-{[2,4-dihydroxy-5-(propan-2-yl)phenyl]carbonyl}-2,3-dihydro-1H-isoindol-5-yl)ethyl]-L-leucine], for which the IC50 was less than 100 nM. Under `CC(C)c1cc(C(=O)N2Cc3ccc(CN[C@@H](C)C(=O)O)cc3C2)c(O)cc1O` [Example 82, N-[(2-{[2,4-dihydroxy-5-(propan-2-yl)phenyl]carbonyl}-2,3-dihydro-4H-isoindol-5-yl)methyl]-L-alanine] stands less than 100 nM; under `CC(C)c1cc(C(=O)N2Cc3ccc(CNC4(C(=O)O)CCCC4)cc3C2)c(O)cc1O` [Example 83, 1-{[(2-{[2,4-dihydroxy-5-(propan-2-yl)phenyl]carbonyl}-2,3-dihydro-1H-isoindol-5-yl)methyl]amino}cyclopentanecarboxylic acid], less than 100 nM; under `CC(C)C[C@H](NCc1cccc(CN(C)C(=O)c2cc(C(C)C)c(O)cc2O)c1)C(=O)O` [Example 84, N-(3-{[{[2,4-dihydroxy-5-(propan-2-yl)phenyl]carbonyl}(methyl)amino]methyl}benzyl)-L-leucine], less than 100 nM. The figure for `CC(C)c1cc(C(=O)N(C)Cc2ccc(CN[C@H](C(=O)O)c3ccccc3)cc2)c(O)cc1O` [Example 85, (2S)-[(4-{[{[2,4-dihydroxy-5-(propan-2-yl)phenyl]carbonyl}(methyl)amino]methyl}benzyl)amino](phenyl)ethanoic acid] is less than 100 nM; for `CC(C)c1cc(C(=O)N(C)Cc2ccc(CNC(C)(C)C(=O)O)cc2)c(O)cc1O` [Example 86, N-(4-{[{[2,4-dihydroxy-5-(propan-2-yl)phenyl]carbonyl}(methyl)amino]methyl}benzyl)-2-methylalanine] it is less than 100 nM. `CC(C)c1cc(C(=O)N(C)Cc2cccc(CNC(C)(C)C(=O)O)c2)c(O)cc1O` [Example 87, N-(3-{[{[2,4-dihydroxy-5-(propan-2-yl)phenyl]carbonyl}(methyl)amino]methyl}benzyl)-2-methylalanine]: the IC50 was less than 100 nM. The figure for `CC(C)c1cc(C(=O)N(C)Cc2cccc(CNC3(C(=O)O)CCCC3)c2)c(O)cc1O` [Example 88, 1-[(3-{[{[2,4-dihydroxy-5-(propan-2-yl)phenyl]carbonyl}(methyl)amino]methyl}benzyl)amino]cyclopentanecarboxylic acid] is less than 100 nM. For the compound `CC(C)c1cc(C(=O)N(C)Cc2cccc(CN[C@H](C(=O)O)c3ccccc3)c2)c(O)cc1O` [Example 89, (2S)-[(3-{[{[2,4-dihydroxy-5-(propan-2-yl)phenyl]carbonyl}(methyl)amino]methyl}benzyl)amino](phenyl)ethanoic acid], the IC50 was less than 100 nM. The figure for `CC(C)c1cc(C(=O)N2Cc3ccc(CCCNC4(C(=O)O)CCCC4)cc3C2)c(O)cc1O` [Example 90, 1-{[3-(2-{[2,4-dihydroxy-5-(propan-2-yl)phenyl]carbonyl}-2,3-dihydro-1H-isoindol-5-yl)propyl]amino}cyclopentanecarboxylic acid] is less than 100 nM; for `CC(C)c1cc(C(=O)N(C)Cc2ccc(CCNC(C)(C)C(=O)O)cc2)c(O)cc1O` [Example 91, N-[2-(4-{[{[2,4-dihydroxy-5-(propan-2-yl)phenyl]carbonyl}(methyl)amino]methyl}phenyl)ethyl]-2-methylalanine] it is less than 100 nM; for `CC(C)c1cc(C(=O)N2CCC(CCN[C@@H](C)C(=O)O)CC2)c(O)cc1O` [Example 92, N-[2-(1-{[2,4-dihydroxy-5-(propan-2-yl)phenyl]carbonyl}piperidin-4-yl)ethyl]-L-alanine] it is less than 100 nM. The figure for `CC(C)c1cc(C(=O)N2Cc3ccc(CCNC4(C(=O)O)CCCC4)cc3C2)c(O)cc1O` [Example 93, 1-{[2-(2-{[2,4-dihydroxy-5-(propan-2-yl)phenyl]carbonyl}-2,3-dihydro-1H-isoindol-5-yl)ethyl]amino}cyclopentanecarboxylic acid] is less than 100 nM; for `CC(C)C[C@H](NC[C@@H]1CCCN1C(=O)c1cc(C(C)C)c(O)cc1O)C(=O)O` [Example 94, N-{[(2S)-1-{[2,4-dihydroxy-5-(propan-2-yl)phenyl]carbonyl}pyrrolidin-2-yl]methyl}-L-leucine] it is 100 to 1000 nM; for `CC(C)C[C@H](NC1CCN(C(=O)c2cc(C(C)C)c(O)cc2O)C1)C(=O)O` (stereo partly drawn) [Example 95, N-(1-{[2,4-dihydroxy-5-(propan-2-yl)phenyl]carbonyl}pyrrolidin-3-yl)-L-leucine] it is less than 100 nM. The figure for `CC(C)C[C@H](NC1CCN(C(=O)c2cc(C(C)C)c(O)cc2O)CC1)C(=O)O` [Example 96, N-(1-{[2,4-dihydroxy-5-(propan-2-yl)phenyl]carbonyl}piperidin-4-yl)-L-leucine] is less than 100 nM.

For `CC(C)c1cc(C(=O)N2CCC(NC(C)(C)C(=O)O)CC2)c(O)cc1O` [Example 97, N-(1-{[2,4-dihydroxy-5-(propan-2-yl)phenyl]carbonyl}piperidin-4-yl)-2-methylalanine], the IC50 was less than 100 nM.

With `CC(C)c1cc(C(=O)N2CCC(N[C@H](C(=O)O)C(C)C)CC2)c(O)cc1O` [Example 98, N-(1-{[2,4-dihydroxy-5-(propan-2-yl)phenyl]carbonyl}piperidin-4-yl)-L-valine], the IC50 was less than 100 nM. Under `CC(C)c1cc(C(=O)N2CCC(N[C@H](C(=O)O)c3ccccc3)CC2)c(O)cc1O` [Example 99, (2S)-[(1-{[2,4-dihydroxy-5-(propan-2-yl)phenyl]carbonyl}piperidin-4-yl)amino](phenyl)ethanoic acid] stands less than 100 nM. Regarding `CC(C)c1cc(C(=O)N2CCC(N[C@@H](C)C(=O)O)CC2)c(O)cc1O` [Example 100, N-(1-{[2,4-dihydroxy-5-(propan-2-yl)phenyl]carbonyl}piperidin-4-yl)-L-alanine], the IC50 was less than 100 nM.

Consider `CC(C)c1cc(C(=O)N2CCC(N[C@@H](Cc3ccccc3)C(=O)O)CC2)c(O)cc1O` [Example 101, N-(1-{[2,4-dihydroxy-5-(propan-2-yl)phenyl]carbonyl}piperidin-4-yl)-L-phenylalanine], for which the IC50 is less than 100 nM. On to `CC(C)C[C@H](NC1CCCN(C(=O)c2cc(C(C)C)c(O)cc2O)C1)C(=O)O` (stereo partly drawn) [Example 102, N-(1-{[2,4-dihydroxy-5-(propan-2-yl)phenyl]carbonyl}piperidin-3-yl)-L-leucine], for which the IC50 is 100 to 1000 nM. The figure for `CC(C)C[C@H](NCC1CCN(C(=O)c2cc(C(C)C)c(O)cc2O)CC1)C(=O)O` [Example 103, N-[(1-{[2,4-dihydroxy-5-(propan-2-yl)phenyl]carbonyl}piperidin-4-yl)methyl]-L-leucine] is less than 100 nM.

Take `CC(C)C[C@H](NCCC1CCN(C(=O)c2cc(C(C)C)c(O)cc2O)CC1)C(=O)O` [Example 104, N-[2-(1-{[2,4-dihydroxy-5-(propan-2-yl)phenyl]carbonyl}piperidin-4-yl)ethyl]-L-leucine]: the IC50 was less than 100 nM. Under `CCCC[C@H](NC1CCN(C(=O)c2cc(C(C)C)c(O)cc2O)CC1)C(=O)O` [Example 105, N-(1-{[2,4-dihydroxy-5-(propan-2-yl)phenyl]carbonyl}piperidin-4-yl)-L-norleucine] stands less than 100 nM. As for `CC(C)c1cc(C(=O)N2CCC(CN[C@@H](C)C(=O)O)CC2)c(O)cc1O` [Example 106, N-[(1-{[2,4-dihydroxy-5-(propan-2-yl)phenyl]carbonyl}piperidin-4-yl)methyl]-L-alanine], the IC50 was less than 100 nM. Under `CC(C)c1cc(C(=O)N2CCC(CN[C@@H](Cc3ccccc3)C(=O)O)CC2)c(O)cc1O` [Example 107, N-[(1-{[2,4-dihydroxy-5-(propan-2-yl)phenyl]carbonyl}piperidin-4-yl)methyl]-L-phenylalanine] stands less than 100 nM. In the case of `CC(C)C[C@@H](NCC1CCN(C(=O)c2cc(C(C)C)c(O)cc2O)CC1)C(=O)O` [Example 108, N-[(1-{[2,4-dihydroxy-5-(propan-2-yl)phenyl]carbonyl}piperidin-4-yl)methyl]-D-leucine], the IC50 was less than 100 nM. The figure for `CC(C)C[C@@H](NC1CCN(C(=O)c2cc(C(C)C)c(O)cc2O)CC1)C(=O)O` [Example 109, N-(1-{[2,4-dihydroxy-5-(propan-2-yl)phenyl]carbonyl}piperidin-4-yl)-D-leucine] is greater than 1000 nM; for `CC(C)c1cc(C(=O)N2CCC(N[C@@H](CC3CCCCC3)C(=O)O)CC2)c(O)cc1O` [Example 110, 3-cyclohexyl-N-(1-{[2,4-dihydroxy-5-(propan-2-yl)phenyl]carbonyl}piperidin-4-yl)-L-alanine] it is less than 100 nM; for `CC(C)c1cc(C(=O)N2CCC(CCN[C@@H](Cc3ccccc3)C(=O)O)CC2)c(O)cc1O` [Example 111, N-[2-(1-{[2,4-dihydroxy-5-(propan-2-yl)phenyl]carbonyl}piperidin-4-yl)ethyl]-L-phenylalanine] it is less than 100 nM.

(Values after patent US9321718B2 (CHROMA THERAPEUTICS LTD., priority 2010, dated 2016).)
